Values after ≈ are worked out from the molar mass of the structure shown.
How the values were obtained:
PR/cmtO promoter = test: Fluorescence-based mCherry expression assay, pJP18T; type: cell-based, M. extorquens
Description: (§1) A desirable property for regulated expression systems is for levels of gene expression from the promoter to be proportional to the concentration of inducer. In order to explore the range of induction of PR/cmtO and PR/tetO, the promoters along with their respective regulatory proteins were introduced onto broad-host-range plasmids (IncP compatibility group) to create the expression vectors pLC290 and pLC291 (FIG. 8 in U.S. Ser. No. 61/863,701). […] We placed the red-fluorescent protein variant mCherry under the control of each promoter in pLC290 and pLC291 and introduced the resulting vectors (pJP18T and pJP22T) into M. extorquens. To induce expression from PR/cmtO and PR/tetO, we supplied varied concentrations of cumate (Q) and anhydrotetracycline (aTc), respectively, to M. extorquens cultures.
(§2) Assays to measure levels of mCherry protein expression were performed as follows. For dose-dependent response curves, M. extorquens strains harboring pJP18T or pJP22T were grown to saturation in 10 mL of Hypho-succinate medium. […] Cultures were allowed to continue growth for an additional 24 hours prior to fluorescence (excitation 587 nm/emission 610 nm) and optical density (600 nm) measurements made using a Tecan Safire2 plate reader. Relative fluorescence values reported are: Relative fluorescence (A.U.)=RFU/OD600*10^−3.

PR/tetO promoter = test: Fluorescence-based mCherry expression assay, pJP22T; type: cell-based, M. extorquens
Description: as §1, §2

[1] = test system: cumate inducible PmxaF promoter; test: Fluorescence-based mCherry expression assay, pHC115m; type: cell-based, M. extorquens; settings: uninduced 15.6±1.5
Experimental: Assays to measure levels of mCherry protein expression were performed as follows. For dose-dependent response curves, M. extorquens strains harboring pJP18T or pJP22T were grown to saturation in 10 mL of Hypho-succinate medium. These cultures were then diluted 1:200 in fresh medium, followed by 630 μL aliquots being dispensed to clear, flat-bottom, 48-well microtiter plates (Costar). Cultures were grown for 4 hours on a plate shaking tower (Caliper) at 150 rpm in a 30° C. humidified room. After 4 hours of growth, 10 μl of fresh medium containing Q or aTc was added to supply Q and aTc at desired concentrations. Cultures were allowed to continue growth for an additional 24 hours prior to fluorescence (excitation 587 nm/emission 610 nm) and optical density (600 nm) measurements made using a Tecan Safire2 plate reader. Relative fluorescence values reported are: Relative fluorescence (A.U.)=RFU/OD600*10^−3.

[2] = test system: wild-type B. fungorum LB400; test: microbe, parasite or virus in culture; settings: Paraburkholderia fungorum
Experimental: The minimal inhibitory concentration (MIC) of formaldehyde was determined by comparing the rate and extent of colony formation of wild-type B. fungorum LB400 to that of the flhA mutants CM363K.1 and CM363.1 on solid medium containing succinate as a growth substrate with various concentrations of formaldehyde. Formaldehyde was added to the plates immediately prior to the addition of the molten agar.

CC(C)c1ccc(C(=O)O)cc1 [Q, p-isopropyl benzoate]
induction (regulatory range) (PR/cmtO promoter; induced versus uninduced): 10 fold
relative fluorescence (crosstalk) (PR/tetO promoter; pJP22T with the non-cognate inducer, grown in succinate, uninduced 1.0): 1.1 A.U.
relative fluorescence, induced [1]: 157.1±3.7 A.U.

Cc1c2c(c(O)c3c(O)cccc13)C(=O)[C@]1(O)C(=O)C(C(N)=O)=C(O)[C@@H](N(C)C)[C@@H]1C2 [aTc, anhydrotetracycline]
relative fluorescence (crosstalk) (PR/cmtO promoter; pJP18T with the non-cognate inducer, grown in succinate, uninduced 4.6): 4.2 A.U.
induction (regulatory range) (PR/tetO promoter; induced versus uninduced): 30 fold

C=O [formaldehyde]
MIC [2]: 200 µM (≈ 6.01 µg/mL)

Reference: patent US10920230B2, “Methylotrophs for aquaculture and animal feed” (KnipBio, Inc., priority 2013, dated 2021)
